Data on five compounds can be found in patent US6426367B1, “Methods for selectively occluding blood supplies to neoplasias” (EFA Sciences LLC, priority 1999, dated 2002).

SMILES strings stand for the structures. Like-named read-outs stand apart in the source and are kept apart here. Some results are limits rather than exact numbers.

For data set [1], the system named is tumor cells. The note with it: cited from earlier work; for differential cytotoxic effect, tumor cells versus normal cells: well defined culture conditions.
How the values of data set [2] were obtained: (§1) Patients were admitted into the hospital for the study. A proximal artery suppling a major portion of the blood supply to the tumor was identified. Catheterization of the major artery from which the proximal artery arises was performed under local anaesthesia. In patients 1 and 2 (with hepatomas), the tip of the catheter was positioned in the right hepatic artery via the right femoral artery. In patient 3 (with giant cell tumor of the right lower end of the femur), the tip of the catheter was positioned in the right femoral/popliteal artery. In patient 4 (with giant cell tumor of the left scapula), the tip of the catheter was positioned in the left subdlavian/axillary arteries. In patient 5 (with left kidney tumor), the tip of the catheter was positioned in the left renal artery. Conjugated PUFA salt was prepared fresh, just prior to injection. Radiographic and CT scan examinations were performed immediately after the injection and at periodic intervals in all the five patients.
(§2) Patients 1 and 2 with hepatoma were administered total doses of 1.6 gm and 0.75 gm respectively (the dose refers to the amount of Li-GLA) of PUFA salt into the right hepatic artery through the right femoral route. Patient 3, with giant cell tumor of the lower end of the right femur, underwent right femoral artery catheterization and the tip of the catheter was positioned in the popliteal artery to deliver 500 mg of PUFA salt. Patient 4, who had giant cell tumor of the left scapula, received PUFA salt by selective cannulation of the left subdlavian artery, through the femoral route, from which the tumor-feeding vessel was arising and was given 660 mg of PUFA salt. Patient 5, with renal tumor, received 750 mg of PUFA salt through the right femoral route into the left renal artery from which the tumor-feeding vessels were arising. In all the patients, the administration of PUFA salt was done as swiftly as possible. During the administration of PUFA salt, the vital signs of each patient were monitored.

Data set [3] has as its system tumor-feeding vessels. As to the method:
(§3) Studies were conducted in 5 human patients with stage 4 neoplastic disease. Two of the patients had primary hepatoma (patients 1 and 2), two had giant cell tumor of the bone (patients 3 and 4) and one had renal cell carcinoma (patient 5).
(§4) The lithium salt of GLA was obtained from Scotia Pharmaceuticals, U.K. The PUFA salt was dissolved in sterile saline, sterile phosphate buffered saline (PBS, pH 7.4) or dilute ethanol in saline (final concentration <0.02% ethanol). The final concentration of PUFA in these solutions was approximately 25%. The PUFA solution was mixed with an iodized lymphographic oil (LIPIODOL ULTRA FLUIDE®, Laboratoire Guerbet, Paris, France), in a ratio of between 1:1.5 and 1:3 (volume/volume). In some cases, the PUFA was modified by covalent conjugation (e.g., amide bond) to the iodized lymphographic oil. In other cases the PUFA salt was unmodified, and was diluted directly into the lymphographic agent without conjugation. The PUFA and lymphographic oil mixture was prepared under sterile conditions immediately prior to use.
as §1
(§5) In order to determine how the arterial supply to the tumor tissue was influenced by the injection of PUFA salt, angiography was performed and recorded during and immediately after the procedure, and at periodic intervals thereafter.
as §2

Data set [4] relates to normal arteries including the celiac, subclavian and popliteal arteries. Here is the method:
Moreover, in several other patients, a PUFA was injected into normal arteries including the celiac, subclavian and popliteal arteries.
as §5

The subject of data set [5] is stage 4 neoplastic disease (hepatoma, giant cell tumor of the bone, renal cell carcinoma). As to the method:
as §3, §4, §1
as §2, with “Patient 5, with renal tumor, received 750 mg of PUFA salt through the right femoral route into the left renal artery from which the tumor-feeding vessels were arising. In all the patients, the administration of PUFA salt was done as swiftly as possible.” left out

Data set [6] has as its system human gliomas. The note with it: direct intra-tumoral administration; cited from earlier work.
Where [7] appears, read: patient 4, seven and a half years after injection.

For the compound `CCCCC/C=C\C/C=C\C/C=C\C/C=C\CCCC(=O)O` [AA, arachidonic acid], the “differential cytotoxic effect, tumor cells versus normal cells” value (“differential cytotoxic effect” for short) in data set [1] is listed as “marked differential cytotoxic effect”.
Turning to `CC/C=C\C/C=C\C/C=C\C/C=C\C/C=C\CCCC(=O)O` [EPA, eicosapentaenoic acid], in data set [1], the “differential cytotoxic effect” value is “marked differential cytotoxic effect”.
For the compound `CCCCC/C=C\C/C=C\C/C=C\CCCCC(=O)[O-].[Li+]` [PUFA salt, lithium salt of GLA], in data set [2] (all 5 patients), the “side-effects due to the therapy” value is listed as “no significant side-effects” and the “tolerability of the treatment” value is given as “tolerated the treatment well”. Besides, in data set [2] (all patients), the “biochemical tests after administration” value is “normal”. Also, the side-effect observed entry in data set [2] (during and immediately after the injection) is reported as “mild feeling of warmth followed by pain at the site of the tumor”. Further, the “time until pain subsided” value in data set [2] (patient 2, mild to moderate pain in the hepatic region, NSAIDs given) is 24 to 48 h. Besides, the “occlusion of the tumor-feeding vessels following PUFA salt injection” value in data set [3] (all 5 patients, intra-arterial, 0.5-1.6 gm Li-GLA mixed with or conjugated to LIPIODOL) is “total occlusion of the tumor-feeding vessels”. The “speed of occlusion of tumor-feeding vessels” value in data set [3] (all types of tumor-feeding vessels, irrespective of size) is “almost instantaneously”. For the same compound, the “occlusion of tumor-feeding vessels in third angiogram” value in data set [3] (patient 1, hepatoma, 1 week after second dose (0.5 gm), 11th day after first dose) is recorded as “almost complete occlusion”. Further, the “tumor blush in repeat angiogram” value in data set [3] (patient 1, hepatoma, 4 days after first dose) is given as “much reduced”. Moreover, the “tumor-feeding vessels visible on repeat angiogram” value in data set [3] (patient 1, hepatoma, 28 days after injection) is recorded as “no tumor-feeding vessels could be seen”. Further, the “tumor-feeding vessels occluded following the first injection” value in data set [3] (patient 1, hepatoma, first dose 1.1 gm, right hepatic artery) is “More than 50%”. In addition, in data set [3] (patient 2, hepatoma), the “timing of occlusion of tumor-feeding vessels” value is recorded as “essentially simultaneously with the injection”. Further, in data set [3] (patient 2, hepatoma, 750 mg, right hepatic artery), the “occlusion of tumor-feeding vessels immediately after injection” value was “complete occlusion”. The “state of occluded tumor-feeding vessels in repeat angiogram” value in data set [3] (patient 3, 10 days after injection) is “remained closed”. Further, the “occlusion of tumor-feeding vessels immediately after injection” value in data set [3] (patient 3, giant cell tumor of right femur, 500 mg, femoral/popliteal artery) is “Complete occlusion”. The “occlusion of tumor-feeding vessels immediately after administration” value in data set [3] (patient 4, giant cell tumor of left scapula, 660 mg, left subclavian artery) is reported as “Complete occlusion”. Moreover, in data set [3] (setting [7]), the “state of tumor-feeding vessels in follow-up angiogram” value is given as “still occluded”. In addition, the “occlusion of tumor-feeding arteries” value in data set [3] (patient 5, renal cell carcinoma, 750 mg, renal artery) is on record as “Complete occlusion”. Besides, the “occlusion of normal arteries feeding the normal lower pole of the kidney” value in data set [4] (patient 5, 750 mg, renal artery) is “without any occlusion”. Also, in data set [4] (patients treated with PUFA salt, angiograms), the “occlusion of normal vasculature feeding non-neoplastic tissues” value is listed as “No occlusion”. In addition, the “spasms or occlusions of normal arteries after injection” value in data set [4] (several other patients, injection into celiac, subclavian and popliteal arteries) was “no spasms or occlusions”. In data set [5] (patient 1, hepatoma, 6 months following the injection), the “weight gain after injection” value is on record as > 10 kgs. Besides, in data set [5] (patient 1, one month after the first injection), the “reduction in the size of the hepatoma” value is recorded as “More than 50%”. In data set [5] (setting [7]), the “state of the tumor mass at follow-up” value is given as “completely calcified”. Also, the survival after injection in data set [5] (patient 5, advanced renal cell carcinoma with secondary tumors) was 3 months.
With `CC/C=C\C/C=C\C/C=C\C/C=C\C/C=C\C/C=C\CCC(=O)O` [DHA, docosahexaenoic acid], in data set [1], the “differential cytotoxic effect” value is “marked differential cytotoxic effect”.
In the case of `CCCCC/C=C\C/C=C\C/C=C\CCCCC(=O)O` [GLA, gamma-linolenic acid], in data set [1] (normal and tumor cells grown together), the “selectivity of tumoricidal action in mixed culture” value was “more selective tumoricidal action compared to AA and EPA”. Besides, the “differential cytotoxic effect” value in data set [1] is “marked differential cytotoxic effect”. Further, in data set [6], the “effect on human gliomas” value is “can regress human gliomas” and the side-effects entry is on record as “without significant side-effects”.
